The values that follow are results of earlier work, collected in patent US20230337663A1, “AGRICULTURAL COMPOSITION” (REVOLUTION BIOTECH LLC, priority 2020, published 2023).

For this series the following is noted: Ecolabel Lubricant Substance Classification List.

Regarding Farnesene, mixture of isomers, the toxicity label result is “non-toxic”.
